Measured values: patent publication US20240425574A1, “ANTI-PDGF-B ANTIBODIES AND PHARMACEUTICAL COMPOSITION THEREOF” (Regeneron Pharmaceuticals, Inc., priority 2021, published 2024)
Where two headings read alike, the source gives them in different places. Marks after values point to notes of the source that are not given here.

How the values were obtained:
Human PDGF-AA = test: FLIPR calcium flux in PASMC (Example 17); format: cell-based; conditions: 3 nM PDGF-AA constant
Experimental: (§1) Upon reaching 100% confluency within each well, PDGF driven calcium flux was assessed via the FLIPR® Calcium 5 Assay Kit on the FLIPR Tetra System (Molecular Devices) following the manufacturer's protocol. In brief, complete media was replaced with 50 μL assay media (DMEM-0.1% BSA-1× Penicillin/Streptomycin/L-Glutamine). The Calcium 5 dye was then reconstituted in the supplied buffer in the presence of probenecid. […] Human PDGF-AA, PDGF-BB and PDGF-DD serial dilutions and inhibitory constants were generated on separate dosing plates. A 0.5 nM concentration of PDGF-BB, 1 nM concentration of PDGF-DD and a 3 nM concentration of PDGF-AA were chosen as constants to assess antibody and small molecule inhibition. […] Antibodies were pre-incubated with PDGF proteins for 30 minutes before addition onto the cells via the FLIPR tetra system. […] These calcium traces were analyzed for their Max-Min values using the SoftMax Pro Software (Molecular Devices).

monocrotaline rats [1] = test: 4 weeks Monocrotaline PAH rats, preventive treatment (Example 10 study 1); format: in vivo, rat
Experimental: Six to seven weeks old male Sprague Dawley rats were used. Rats were separated into treatment groups such that body weights were similar among different groups. […] Standard of care group was orally administered macitentan at 30 mg/kg daily for 28 days. At day one, rats were subcutaneously administered either 40 mg/kg of monocrotaline or 5 mL/kg of saline. By the end of day 28, right ventricular systolic pressure (RVSP) was measured by right heart catheterization and RV hypertrophy was calculated by Fulton index as the weight ratio of RV and (LV+septum). In study 2, rats were subcutaneously administered either 60 mg/kg of monocrotaline or 5 mL/kg of saline. […] Body weight change from day 0-35 were used for general toxicity assessment and animal mortality was calculated by day 35.
Rats were anesthetized with isoflurane and were kept at approximately 37° C. using a heated platform (Heated Hard Pad 1, Braintree Scientific) and circulating heated water pump (T/Pump Classic, Gaymar Industries). The neck area for each rat was prepared for surgery by depilating over the right common Carotid artery and right Jugular vein. An incision was made and the right Jugular vein was isolated with care as to not damage the Carotid artery and/or the Vagus nerve. A piece of 5-0 silk suture was placed under the isolated Jugular vein to allow for retraction of the vessel cranially, then a 23-gauge needle was used to introduce a hole into the Jugular vein. A pressure catheter (Micro-tip catheter transducer SPR-1000, Millar Instruments, Inc.) was inserted into the opening of the Jugular vein and advanced past the right atrium into the right ventricle. The catheter was connected to pressure/volume instrument (MPVS-300, Millar Instruments, Inc.) that measured heart rate as well as both diastolic and systolic right ventricular pressures. These parameters were digitally acquired using a data acquisition system (PowerLab 4/35, AD Instruments). LabChart Pro 7.0 software (AD Instruments) was used to analyze right ventricular pressures. Readings were quantified from a 60 second interval of the pressure tracing (following a 2 minute period of recording to allow for pressure stabilization). The parameters analyzed were right ventricular systolic pressures (RVSP), heart rate (HR) and rate of right ventricular pressure rise (dP/dt max).
After the in vivo hemodynamic measurements, animals were euthanized by exsanguinations under anesthesia and then RV free wall, left ventricle (LV) and septum tissue were harvested and weighted. RV hypertrophy was calculated by Fulton index as the weight ratio of RV and (LV+septum). Then, RV tissue was saved frozen (−80° C.) for biochemical analyses.

hypoxia/sugen PAH mice [2] = format: in vivo, mouse; conditions: Hypoxia/Sugen Mice - Therapeutic dose response; dose mg/kg: H4H13145P 1, Macitentan 30, REGN2176 25
Experimental: For the second study (Study 2), 12 to 14 weeks old male C57/BL mice, (Taconic) were used for the studies. Mice were separated into treatment groups by weight such that starting body weights were similar among different groups. […] Mice in hypoxia chamber were given VEGF receptor inhibitor Sugen5146 at 20 mg/kg subcutaneously once a week for 6 weeks. The mice were administered antibodies starting on day 21 for 3 weeks as outlined in Table 12. By the end of week 6, right ventricular systolic pressure (RVSP) was measured by right heart catheterization and RV hypertrophy was calculated by Fulton index as the weight ratio of RV and (LV+septum). […]
Mice were anesthetized with isoflurane and were kept at approximately 37° C. using a heated platform (Heated Hard Pad 1, Braintree Scientific) and circulating heated water pump (T/Pump Classic, Gaymar Industries). […] The catheter was connected to pressure/volume instrument (MPVS-300, Millar Instruments, Inc.) that measured heart rate as well as both diastolic and systolic right ventricular pressures. […] Readings were quantified from a 60 second interval of the pressure tracing (following a 2 minute period of recording to allow for pressure stabilization). The parameters analyzed were right ventricular systolic pressures (RVSP), heart rate (HR) and rate of right ventricular pressure rise (dP/dt max). […]

monocrotaline rats [3] = test: Study #2, 5 weeks Monocrotaline severe PAH rats survival (Example 19); format: in vivo, rat
Experimental: In order to evaluate the effect of two inhibitory anti-PDGF-B antibodies in the rat monocrotaline model of pulmonary arterial hypertension, 2 studies were performed: study #1 was performed on 4-week Monocrotaline PAH Rats with Preventive Drug Treatment; and study #2 was performed on 5-weeks Monocrotaline Severe PAH Rats Survival with Therapeutic Drug Treatment (Tables 26-27).
Six to seven weeks old male Sprague Dawley rats were used. Rats were separated into treatment groups such that body weights were similar among different groups. […] On day one, rats were subcutaneously administered either 40 mg/kg of monocrotaline or 5 mL/kg or saline as control. On day 28, right ventricular systolic pressure (RVSP) was measured by right heart catheterization and RV hypertrophy was calculated by Fulton index as the weight ratio of RV to (LV+septum). In study #2, rats were subcutaneously administered either 60 mg/kg of monocrotaline or 5 mL/kg of saline. […] Small molecule group was orally administered macitentan at 30 mg/kg daily. Body weight change from day 0-35 were used for general toxicity assessment and animal mortality and median survival time were calculated by day 35.

hypoxia/sugen PAH mice [4] = test: Hypoxia/Sugen PAH mice, therapeutic treatment (Study 1); format: in vivo, mouse; conditions: dose mg/kg: H4H13145P 25, Macitentan 30, REGN2176 25
Experimental: For the first study, 14 to 16 weeks old male humanized PDGFRβ^hu-hu mice, (MAID #1639) were used. Mice were separated into treatment groups by weight such that starting body weights were similar among different groups. […] Mice in hypoxia chamber were given VEGF receptor inhibitor Sugen5146 at 20 mg/kg subcutaneously once a week for 6 weeks. The mice were administered antibodies starting on day 21 for 3 weeks as outlined in Table 11. […] Mice were anesthetized with isoflurane and were kept at approximately 37° C. using a heated platform (Heated Hard Pad 1, Braintree Scientific) and circulating heated water pump (T/Pump Classic, Gaymar Industries). The neck area for each mouse was prepared for surgery by depilating over the right common Carotid artery and right Jugular vein. An incision was made, and the right Jugular vein was isolated with care as to not damage the Carotid artery and/or the Vagus nerve. […] The catheter was connected to pressure/volume instrument (MPVS-300, Millar Instruments, Inc.) that measured heart rate as well as both diastolic and systolic right ventricular pressures. […] The parameters analyzed were right ventricular systolic pressures (RVSP), heart rate (HR) and rate of right ventricular pressure rise (dP/dt max). […] RV hypertrophy was calculated by Fulton index as the weight ratio of RV and (LV+septum). […]

Human PDGF-DD = conditions: read-out: IC50 Calcium Flux, PDGF-DD; PASMC; 1 nM PDGF-DD constant
Experimental: as §1

PDGF-DD = conditions: read-out: IC50 Proliferation, PDGF-DD; PASMC; IncuCyte cell confluence at day 6
Experimental: (§2) For calcium flux and proliferation assays, primary Human Pulmonary Smooth Muscle Cells were seeded onto 96-well assay plates at a cell density of 10,000/well and 2,000/well respectively. The smooth muscle cells were cultured in supplier recommended smooth muscle media in a humidified incubator at 37° C. in 5% CO2.
(§3) Proliferation was assessed via the IncuCyte live cell imaging system (Essen BioScience). Following overnight plating, the complete media was replaced with serum free smooth muscle media supplemented with 0.1% BSA. […] Plates were imaged every 3 hours over the course of 7 days and proliferation was determined by measuring cell confluence in the well at day 6 via the IncuCyte Base Analysis software (Sartorius).

PDGF-BB [5] = molecular target: T1, PDGF-BB (Homo sapiens, UniProt P01127); test: IncuCyte proliferation of PASMC (Example 17); format: cell-based; set-up: purchased R&D Systems 220-GMP; conditions: IncuCyte cell confluence at day 6
T1 sequence (P01127 82-190 limits assumed): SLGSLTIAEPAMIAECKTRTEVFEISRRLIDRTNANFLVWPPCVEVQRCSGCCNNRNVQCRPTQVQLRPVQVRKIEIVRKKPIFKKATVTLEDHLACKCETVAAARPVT
Experimental: as §2, §3

PDGF-AA = conditions: read-out: IC50 Proliferation, PDGF-AA; PASMC; IncuCyte cell confluence at day 6
Experimental: as §2, §3

PDGF-BB [6] = molecular target: T1, PDGF-BB; test: FLIPR calcium flux in PASMC (Example 17); format: cell-based; set-up: purchased R&D Systems 220-GMP
Experimental: as §1

[7] = Monocrotaline Rat - Prevention, dose mg/kg: H4H13145P 25, Macitentan 30, Sotatercept 25
[8] = MCT 60 mg/kg rats, treatment from day 14, antibody SC twice per week, Macitentan 30 mg/kg daily gavage

Cc1ccc(NC(=O)c2ccc(CN3CCN(C)CC3)cc2)cc1Nc1nccc(-c2cccnc2)n1 [Imatinib]
IC50 (Human PDGF-AA): 270 nM

CCCNS(=O)(=O)Nc1ncnc(OCCOc2ncc(Br)cn2)c1-c1ccc(Br)cc1 [Macitentan, reference compound]
% reduction in RV hypertrophy (monocrotaline rats [1]; [7]): trend
lessening of right ventricular hypertrophy (Fulton Index) (monocrotaline rats [1]; monocrotaline 40 mg/kg, antibody 25 mg/kg SC 2x/week, Macitentan 30 mg/kg P.O. daily, versus isotype control): failed to reduce
right ventricular systolic pressure elevation (monocrotaline rats [1]; monocrotaline 40 mg/kg, antibody 25 mg/kg SC 2x/week, Macitentan 30 mg/kg P.O. daily, week 4): significantly reduced
% reduction in RV hypertrophy (hypoxia/sugen PAH mice [2]): trend
Reduction in RVSP (hypoxia/sugen PAH mice [2]): 19-25 mmHg
Death # by day 35 (monocrotaline rats [3]; [8]): 11
Survival rate by day 35 (monocrotaline rats [3]; [8]): 0%*
median survival (monocrotaline rats [3]; [8]): 20 days
survival (monocrotaline rats [3]; monocrotaline 60 mg/kg, antibody 25 mg/kg 2 times a week from day 14, macitentan 30 mg/kg daily, day 35): failed to prolong survival
% reduction in RV hypertrophy (hypoxia/sugen PAH mice [4]): trend
Reduction in RVSP (hypoxia/sugen PAH mice [4]): 19-25 mmHg

COc1ccc(-c2cncc(N[C@@H](C)c3cccc(NC(=O)c4cncc(C)c4)c3)n2)cc1OC [Seralutinib]
IC50 (Human PDGF-DD): 27 nM
IC50 (PDGF-DD): 6 nM
IC50 (Human PDGF-AA): 10 nM
IC50 (PDGF-BB [5]): 6 nM
IC50 (PDGF-AA): 9 nM
IC50 (PDGF-BB [6]; PASMC, 0.5 nM PDGF-BB constant, read-out: IC50 Calcium Flux, PDGF-BB): 10 nM
inhibition in words (PDGF-BB [6]; PDGF-AA, PDGF-DD and PDGF-BB driven calcium flux and proliferation): fully inhibited
IC50 (PDGF-BB [6]; range over PDGF-AA, PDGF-DD, PDGF-BB driven calcium flux and proliferation, read-out: IC50 values): 6 to 27 nM

Sotatercept: ACVRIIa-Fc, vessel remodeling comparator drug
Reduction in RVSP (monocrotaline rats [1]; [7]): 14 mmHg
